Data: patent US20260345517A1, “DOSAGE REGIMENS FOR TREATING STARGARDT DISEASE” (Alkeus Pharmaceuticals, Inc., priority 2024, published 2026)

Columns and labels:
Format in all cases: in vivo, human
[1] = TEASE-1: plasma gildeuretinol (replacement of plasma vitamin A); details: for percentage of gildeuretinol over total vitamin A (retinol + gildeuretinol): 8-week pharmacokinetic analysis, plasma
Method: The Tolerability and Effects of gildeuretinol acetate in Stargardt Disease (Clinical trial group 1 also known as TEASE-1) was a 24-month, multicenter, double-masked, placebo-controlled trial designed to evaluate the efficacy and safety of daily oral gildeuretinol acetate in slowing the growth of atrophic retinal lesions in Stargardt disease patients. The trial was conducted at multiple sites in the United States (NCT02402660).
Patients 12 years or older, clinically diagnosed with Stargardt disease, with at least one ABCA4 mutation, at least one eye presenting with well-demarcated areas of reduced fundus autofluorescence, and with any visual acuity, were eligible.
Patients were randomized to gildeuretinol acetate 14 mg capsules, gildeuretinol acetate 24 mg capsules, or placebo capsules, to be taken once daily for one year. After one year, 50% of randomly selected patients receiving placebo were crossed over in a 1:1 ratio to gildeuretinol acetate 14 mg capsules or gildeuretinol acetate 24 mg capsules for a second year.
Gildeuretinol acetate and placebo capsules were identical appearing capsules. Patients were advised to avoid vitamin A-containing supplements and liver-based products. Fruits and vegetables contain beta-carotene, not preformed vitamin A, and could be consumed without limitation. Trial visits occurred at 8 weeks and 6, 12, 18, and 24 months following screening and randomization.

[2] = test system: asymptomatic Stargardt disease patients; assay: TEASE-3: photoreceptor loss (ellipsoid zone band loss) by optical coherence tomography; details: 14 mg daily
Method: FIG. 5 is a graph showing retinal photoreceptor loss over time in three asymptomatic Stargardt disease patients taking gildeuretinol acetate 14 mg daily. Lines are piecewise linear regressions with a knot time of 6 months and show the mean area of retinal photoreceptor loss of both eyes. Each symbol represents the area of photoreceptor loss for calculated for one eye. To measure photoreceptor loss, the ellipsoid zone layer was evaluated on b-scans acquired on Heidelberg engineering optical coherence tomography (Heidelberg, Germany).
The tolerability and effects of gildeuretinol acetate in Stargardt Disease (Clinical trial group 3 also known as TEASE-3) study was an open-label, multicenter, case control study designed to evaluate the efficacy and safety of gildeuretinol acetate on the progression of Stargardt disease in asymptomatic individuals. The trial was conducted at multiple sites in the United States.
Patients received gildeuretinol acetate 14 mg capsules, to be taken orally once daily. Trial visits occurred every 6 months approximately following screening and treatment start visits.
Disease progression was monitored by best-corrected visual acuity (BCVA) reported in number of Early Treatment Diabetic Retinopathy Study (ETDRS) letters, fundus autofluorescence (FAF) imaging, loss of photoreceptors (as measured by the ellipsoid zone band loss) by optical coherence tomography (OCT) according to literature (1-3) and retinal sensitivity by microperimetry.
Measurements from the left and right eye for each patient were averaged for each visit to produce a single statistical unit for both eyes(4). For segmented linear regressions, knot times were selected so that three visits were included in the first segment.

[3] = Open-label multiple dose pharmacokinetic study in healthy volunteers (percentage of deuterated vitamin A in plasma, LC/MS); details: for % D3 Vitamin A: average over 24 hours, from AUC
Method: Study Design: This was an open-label, non-randomized, multiple dose study in healthy volunteers aged 21 to 70 years of age (inclusion criteria). Subjects who met all entrance criteria at screening were invited to receive the study medication. There were six treatment arms: 2 mg/day, 3.5 mg/day, 5 mg/day, 7 mg/day, 10 mg/day and 14 mg/day gildeuretinol acetate. For the four lower dose groups, the dose regimen was one capsule per day, orally, to be taken at home, preferably in the evening unless a different time was preferred by the subject. For the two highest doses, the dose regimen was two capsules per day, one in the morning and one in the evening, although subjects with a preference to take both capsules at once were offered to do so. After taking the 1st dose at the study site, subjects were invited to return two and four weeks after starting the treatment.
The clinical staff made periodic calls to monitor adverse events and ensure subject compliance. In addition, a text message was sent daily to remind subjects to take their medication. Subjects were instructed to avoid foods that contain large amounts of vitamin A (such as liver-based products), including supplements containing vitamin A, and to report their vitamin A intake by answering a daily text message diary. Fruits and vegetables were permitted without restriction.
Deuterated retinol (gildeuretinol) (“D3”) and non-deuterated retinol (“Do”) and other vitamin A metabolites were measured to calculate the percentage of deuterated vitamin A in plasma. For all treatment groups, plasma samples were collected at baseline, 14±1 days (“2 weeks”) and 28±1 days (“4 weeks”) after initiation of treatment. Blood samples were usually collected following at least 10 hours of fasting (including last gildeuretinol acetate intake), preferably in the morning. For the 7 mg/day and the 14 mg/day groups only, after the first and last dose, blood samples were collected every 4 hours for 24 hours. A liquid chromatography/mass spectrometry assay was used to measure the metabolite levels.
Table 2 provides % D3 Retinol (gildeuretinol, i.e. the percentage of deuterated retinol (gildeuretinol) over total retinol (as deuterated+non-deuterated) in plasma measured 12-24 hours following gildeuretinol acetate intake.
Pharmacokinetic Results (integrated levels over 24 hours post dosing): total vitamin A in plasma, both deuterated (gildeuretinol) and non-deuterated (retinol), was measured every 4 hours following administration of 7 mg or 14 mg at the first dose, and following administration of the 28th dose (4 weeks of daily treatment). The area under the curve (AUC) was calculated and the % deuterated % D3 of total vitamin A (as retinol and gildeuretinol) was computed as an average over 24 hours.

CC(=O)OC/C=C(C)/C=C/C=C(C)/C=C/C1=C(C)CCCC1(C)C [gildeuretinol acetate, C20-D3-retinol acetate]
replacement of vitamin A with gildeuretinol ([1]; 14 mg and 24 mg once daily, about 24 months): over 80% | replacement of plasma vitamin A sustained throughout the treatment period ([1]; 14 mg and 24 mg, throughout treatment): greater than 80% | percentage of gildeuretinol over total vitamin A (retinol + gildeuretinol) ([1]; 14 mg): 87% | percentage of gildeuretinol over total vitamin A (retinol + gildeuretinol) ([1]; 24 mg): 92% | replacement of serum vitamin A with gildeuretinol ([1]; 14 to 24 mg daily, within a matter of weeks): more than 80% | patients with over 80% of plasma vitamin A replaced ([1]; after six months): 39 out of 40 | total plasma vitamin A and retinoic acid (combined vitamin A and gildeuretinol-derived forms) versus placebo ([1]; gildeuretinol acetate vs placebo groups): the same | average area of photoreceptor loss [2]: 0.36±0.32 mm^2 | average area of photoreceptor loss, share of the foveal area [2]: 20% | photoreceptor loss, following years of treatment ([2]; after first six months): trended toward an improvement | photoreceptor loss rate ([2]; first six months, average for two patients): approximately 0.18 mm^2/year | photoreceptor loss, third patient ([2]; full treatment period): no photoreceptors were lost | % D3 Vitamin A ([3]; 7 mg/day, 1st dose): 38% | % D3 Vitamin A ([3]; 7 mg/day, 28th dose): 75% | average percentage of deuterated plasma vitamin A of total vitamin A (retinol + gildeuretinol) ([3]; 14 mg once daily, after 4 weeks): 85% | % D3 Vitamin A ([3]; 14 mg/day, 1st dose): 52% | % D3 Vitamin A ([3]; 14 mg/day, 28th dose): 85%
